“And” between values parts separate entries of the source, which are not always exact repeats. Equal entries are not always repeated.
Experiments:
[1] = molecular target: T1, Recombinant human TYK2 catalytic domain (Homo sapiens, UniProt P29597); assay: TYK2 inhibition assay (polyGT substrate); format: biochemical; settings: 0.1 μM ATP, individual determinations, read-out: IC50 against TYK2
T1 construct: Recombinant human TYK2 catalytic domain (amino acids 871-1187; catalog number 08-147); purchased Carna biosciences 08-147
T1 sequence (P29597 871-1187): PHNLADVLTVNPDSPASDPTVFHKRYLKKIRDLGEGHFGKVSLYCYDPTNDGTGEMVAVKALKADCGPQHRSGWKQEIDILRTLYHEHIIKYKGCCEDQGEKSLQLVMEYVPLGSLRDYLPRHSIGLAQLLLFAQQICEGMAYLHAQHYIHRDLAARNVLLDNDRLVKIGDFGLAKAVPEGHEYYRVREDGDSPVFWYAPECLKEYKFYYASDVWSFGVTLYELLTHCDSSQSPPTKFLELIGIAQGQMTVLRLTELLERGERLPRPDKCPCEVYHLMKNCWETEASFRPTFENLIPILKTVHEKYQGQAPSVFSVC
Experimental: Recombinant human TYK2 catalytic domain (amino acids 871-1187; catalog number 08-147) was purchased from Carna biosciences. 5 ng of TYK2 was incubated with 12.5 μg polyGT substrate (Sigma catalog number P0275) in kinase reaction buffer (25 mM Hepes pH 7.2, 50 mM NaCl, 0.5 mM EDTA, 1 mM DTT, 5 mM MnCl2, 10 mM MgCl2, 0.1% Brij-35, 0.1 μM non-radioactive ATP, 0.125 μCi ^33P-gamma-ATP (GE Healthcare, catalog number AH9968) final concentrations) with or without 5 μL containing test compound or vehicle (DMSO, 1% final concentration), in a total volume of 25 μL, in a polypropylene 96-well plate (Greiner, V-bottom). After 90 min at 30° C., reactions were stopped by adding 25 μL/well of 150 mM phosphoric acid. […] 40 μL/well of Microscint-20 was added, the top of the plates was sealed and readout was performed using the Topcount (Perkin Elmer). Kinase activity was calculated by subtracting counts per min (cpm) obtained in the presence of a positive control inhibitor (10 μM staurosporine) from cpm obtained in the presence of vehicle. The ability of a test compound to inhibit this activity was determined as:
Percentage inhibition=((cpm determined for sample with test compound present−cpm determined for sample with positive control inhibitor) divided by (cpm determined in the presence of vehicle−cpm determined for sample with positive control inhibitor))*100. […]

[2] = test system: GM-CSF-induced STAT5 phosphorylation; assay: Whole blood assay, GM-CSF stimulation, phospho-STAT5 by FACS; format: cell-based; settings: human whole blood, CD14+ cells, 8 different donors
Experimental: In addition, a flow cytometry analysis was performed to establish JAK1 over JAK2 compound selectivity ex vivo using human whole blood. Therefore, blood was taken from human volunteers who gave informed consent. Blood was then equilibrated for 30 min at 37° C. under gentle rocking, then aliquoted in Eppendorf tubes. Compound was added at different concentrations and incubated at 37° C. for 30 min under gentle rocking and subsequently stimulated for 20 min at 37° C. under gentle rocking with interleukin 6 (IL-6) for JAK1-dependent pathway stimulation or GM-CSF for JAK2-dependent pathway stimulation. Phospho-STAT1 and phospho-STAT5 were then evaluated using FACS analysis.
For GM-CSF-stimulated increase of Signal Transducers and Activators of Transcription 5 (pSTAT5) phosphorylation in white blood cell, human whole blood, drawn from human volunteers who gave informed consent, is ex vivo treated with compound for 30 min and subsequently stimulated for 20 min with GM-CSF. The increase in phosphorylation of STAT5 by GM-CSF in monocytes is measured using an anti phospho-STAT5 antibody by FACS. […]
Cells are then washed once with 1×PBS and analyzed on a FACSCanto II flow cytometer (BD Biosciences).
50,000 total events are counted and Phospho-STAT5 positive cells are measured after gating on CD14+ cells. […]

SMILES: CCc1cc(C2CN(S(C)(=O)=O)C2)ncc1N(C)c1cc2c(cn1)ncn2C [Compound 1, [4-Ethyl-6-(1-methanesulfonyl-azetidin-3-yl)-pyridin-3-yl]-methyl-(1-methyl-1H-imidazo[4,5-d]pyridin-6-yl)-amine]
- IC50 [1]: 844 nM and 461 nM and 470 nM and 488 nM and 759 nM and 754 nM and 1000 nM and 501 nM and 688 nM
- IC50 [2]: > 22400 nM

Source: patent US20140213576A1, “NOVEL COMPOUND USEFUL FOR THE TREATMENT OF DEGENERATIVE AND INFLAMMATORY DISEASES” (GALAPAGOS NV, priority 2013, published 2014)
